Data reported in patent US9889184B2 (priority 2008, dated 2018).
Where two headings read alike, the source gives them in different places.

What was measured:
Aspergillus nidulans = assay: Growth inhibition by NaD1 (microtitre OD595); assay type: cell-based
Description: (§1) Antifungal activity against Fusarium oxysporum f. sp. vasinfectum (Fov, Australian isolate VCG01111 isolated from cotton; from Wayne O'Neill, Farming Systems Institute, DPI, Queensland, Australia), Thielaviopsis basicola (gift from David Nehl, NSW DPI, Narrabri, Australia), Verticillium dahliae (from Helen McFadden, CSIRO Plant Industry, Black Mountain, Australia), Leptosphaeria maculans (from Barbara Howlett, University of Melbourne, Victoria, Australia) and Aspergillus nidulans (from Michael Hynes, University of Melbourne) was assessed essentially as described in Broekaert et al, 1990. Spores were isolated from sporulating cultures growing in either half-strength potato dextrose broth (PDB) (Fov and T. basicola), Czapeck-Dox Broth (V. dahliae) (Difco Laboratories) or 10% (v/v) clarified V8 medium (L. maculans and A. nidulans) by filtration through sterile muslin. Spore concentrations were determined using a hemocytometer and adjusted to 5×10^4 spores/mL in the appropriate growth medium. Spore suspensions (80 μL) were added to the wells of sterile 96-well flat-bottomed microtitre plates along with 20 μL of filter-sterilized (0.22 μm syringe filter; Millipore) NaD1, or water to give final protein concentrations of 0-10 μM. The plates were shaken briefly and placed in the dark at 25° C. without shaking until the optical density at 595 nm of the water control reached approximately 0.2 (24-72 h depending on growth rate). Hyphal growth was estimated by measuring the optical density at 595 nm using a microtitre plate reader (SpectraMax Pro M2; Molecular Devices). Each test was performed in quadruplicate.

Verticillium dahliae = assay: Growth inhibition by NaD1 (microtitre OD595); assay type: cell-based
Description: as §1

Thielaviopsis basicola = assay: Growth inhibition by NaD1 (microtitre OD595); assay type: cell-based
Description: as §1

Leptosphaeria maculans = assay: Growth inhibition by NaD1 (microtitre OD595); assay type: cell-based
Description: as §1

Fov hyphae = assay: Membrane permeabilization of Fov hyphae, SYTOX green uptake; assay type: cell-based, Fusarium oxysporum f. sp. vasinfectum
Procedure: Fov hyphae were grown in half-strength PDB (10 mL in a 50 mL tube) from a starting concentration of 5×10^4 spores/mL for 18 h at 25° C. with constant shaking. Samples (1 mL) were then removed and NaD1 (final concentration 2 μM), NaD1R&A (final concentration 2 μM) or an equivalent volume of water was added before incubation for 2 h at RT with gentle agitation. SYTOX® green (Invitrogen-Molecular Probes, Eugene, Oreg.) was added to a final concentration of 0.5 μM and the hyphae were allowed to stand for 10 min. Hyphae (20 μL) were then transferred to microscope slides (SuperFrost (Registered) Plus, Menzel-Glaser) and covered with glass coverslips for visualization of SYTOX® green uptake using an Olympus BX51 fluorescence microscope. SYTOX® green fluorescence was detected using an MWIB filter (excitation wavelength 460-490 nm). Images were captured using a SPOT RT 3CCD digital camera (Diagnostic Instruments) and processed using Adobe Photoshop. SYTOX® green uptake was quantitated by measuring fluorescence of hyphae in microtitre trays using a fluorimeter (SpectraMax M2; Molecular Devices) with excitation and emission wavelengths of 488 nm and 538 nm, respectively.
The effect of temperature on membrane permeabilization of Fov hyphae by NaD1 was monitored as described, except hyphae were pre-equilibrated for 60 min at either 10°, 4° or 0° C. before addition of NaD1 and all subsequent steps were carried out at these temperatures.
The kinetics of membrane permeabilization by NaD1 were studied. Fov hyphae were grown in half-strength PDB from a starting concentration of 5×10^4 spores/mL for 18 h at 25° C. Hyphae (80 μL) were then transferred to 96-well microtitre plates and incubated with SYTOX® green (0.5 μM) for 10 min prior to the addition of 20 μL of peptide solution to give final protein concentrations of 0.2, 0.4, 0.8, 1.6, 3.12, 6.25, 12.5, 25, 50 or 100 μM. Fluorescence readings (Ex; 488 nm, Em; 538 nm) were then taken every 2 min for 3 h using a fluorimeter (SpectraMax M2).

Fusarium graminearum = assay type: cell-based

## NaD1: plant defensin isolated from floral tissue of Nicotiana alata (SEQ ID NO:12) (RECKTESNTFPGICITKPPCRKACISEKFTDGHCSKILRRCLCTKPC; Nicotiana alata (NaD1))
Aspergillus nidulans; 1 μM NaD1, A. nidulans
  growth inhibited: approximately 65%
Aspergillus nidulans; 5 μM NaD1, A. nidulans
  growth inhibited: more than 80%
Aspergillus nidulans; Aspergillus nidulans
  IC50: 800 nM
Verticillium dahliae; 1 μM NaD1, V. dahliae
  growth inhibited: approximately 65%
Verticillium dahliae; 5 μM NaD1, V. dahliae
  growth inhibited: more than 80%
Verticillium dahliae; Verticillium dahliae
  IC50: 750 nM
Thielaviopsis basicola; 1 μM NaD1, T. basicola
  growth inhibited: approximately 65%
Thielaviopsis basicola; 5 μM NaD1, T. basicola
  growth inhibited: more than 80%
Thielaviopsis basicola; Thielaviopsis basicola
  IC50: 800 nM
Leptosphaeria maculans; 1 μM NaD1, L. maculans
  growth retarded: 50%
Leptosphaeria maculans; 5 μM NaD1, L. maculans
  growth inhibited: more than 80%
Leptosphaeria maculans; Leptosphaeria maculans
  IC50: 800 nM
Fov hyphae; 0° C., compared with 4° C.
  NaD1-induced permeabilization (SYTOX green uptake): reduced even further
Fov hyphae; 0.1, 2 or 10 μM NaD1 or 10 μM NaD1R&A
  permeabilization of Fov hyphal membranes (SYTOX green): permeabilized hyphae
Fov hyphae; 4° C.
  NaD1-induced permeabilization (SYTOX green uptake): only a small degree of permeabilization
Fov hyphae; 10° C., less than at 25° C.
  NaD1-induced permeabilization (SYTOX green uptake): substantial uptake of SYTOX® green
Fov hyphae; Vmax = maximum rate of fluorescence increase
  NaD1 concentration up to which Vmax increased linearly; above it rate unchanged (saturable): 6.25 µM
Fov hyphae; above it (up to 50 μM) very little difference in kinetics
  NaD1 concentration up to which the rate of permeabilization increased progressively: 3 µM
Fov hyphae; all NaD1 concentrations
  lag time before permeabilization: around 20 min
  time after which fluorescence began to plateau: 90 min
Fov hyphae; lowest concentration of NaD1 (0.1 μM)
  SYTOX green uptake: a small amount of SYTOX® green uptake occurred
Fusarium graminearum; 0.5 μM NaD1 combined with 0.5 μM/mL NaCys2, FIG. 3B
  toxicity with Fusarium graminearum: significantly enhanced
Fusarium graminearum; 0.5 μM NaD1 in the absence of NaCys2, FIG. 3B
  toxicity with Fusarium graminearum: very low
